In PMC4492764, “Evaluation of biomarkers for in vitro prediction of drug-induced nephrotoxicity: comparison of HK-2, immortalized human proximal tubule epithelial, and primary cultures of human proximal tubular cells” (Pharmacology Research & Perspectives, 2015):
Where a name gives a salt, the structure may show the parent alone.

Legend:
KIM-1 = settings: published in vivo data; ref Vaidya et al. [2006]; cited from earlier work
M-CSF mRNA [1] = assay: M-CSF mRNA qRT-PCR in HK-2 cells; assay type: cell-based, human; parameters: key to Upregulation of M-CSF HK-2 R: +: statistically significant increase; −: no significant increase; settings: for Upregulation of M-CSF HK-2 R: mRNA levels, 72 h time point
Procedure: (§1) Hs00273334_m1), Lcn2 (NGAL; Hs01008571_m1), and Csf1 (M-CSF; Hs00174164_m1). All probes span an exon-exon junction. The real-time quantitative reverse transcription PCR (qRT-PCR) was performed in a 10 μl final reaction mixture using a ViiA 7TM system (Applied Biosystems®, Sydney, NSW, Australia) based on the following thermo cycling conditions: 10 min at 95°C for one cycle, 15 sec at 95°C, 60 sec at 60°C for 40 cycles. The ViiA 7TM software was used for data analysis with Hprt1 expression used for normalization. All assays were performed at least three times, with at least two technical replicates in each assay.

M-CSF mRNA [2] = assay: M-CSF mRNA qRT-PCR in hRPTECs; assay type: cell-based, human; parameters: key to Upregulation of M-CSF hRPTECs R: +: statistically significant increase; −: no significant increase; settings: for M-CSF mRNA levels in hRPTECs: 72 h (Fig.4C); for Upregulation of M-CSF hRPTECs R: mRNA levels, 72 h time point
Procedure: as §1

M-CSF = tested on: M-CSF; parameters: key: +: statistically significant increase; −: no significant increase; settings: published in vivo data; ref Razzaque and Taguchi [2002]; Menke et al. [2009]; cited from earlier work
[3] = MTT cytotoxicity assay in HK-2 cells; assay type: cell-based, human; settings: human, HK-2 cells; 72 h incubation; Mean ± Standard deviation, n = 3
Procedure: (§2) For the MTT assay, the medium was then removed, the dried crystals were resuspended in 60 μL of Dimethyl sulfoxide (DMSO), and the absorbance was read at 570 nm. For the resazurin assay, the fluorescence intensity was read using a PolarStar Omega plate reader (BMG Labtech; Mornington VIC, Australia) at excitation/emission 560/590 nm. All assays were performed at least three times. […] La Jolla, CA). Both MTT and resazurin assays were performed three times, with two technical replicates in each assay.

[4] = Resazurin cytotoxicity assay in HK-2 cells; assay type: cell-based, human; settings: human, HK-2 cells; 72 h incubation; Mean ± Standard deviation, n = 3
Procedure: as §2

[5] = Resazurin cytotoxicity assay in hRPTECs; assay type: cell-based, human; settings: human, hRPTECs (passage 2); 72 h incubation; Mean ± Standard deviation, n = 3
Procedure: as §2

hRPTECs [6] = assay: Resazurin cytotoxicity assay in hRPTECs; assay type: cell-based, human
Procedure: as §2

[7] = MTT cytotoxicity assay in hRPTECs; assay type: cell-based, human; settings: human, hRPTECs (passage 2); 72 h incubation; Mean ± Standard deviation, n = 3
Procedure: as §2

HK-2 cells = assay: MTT cytotoxicity assay in HK-2 cells; assay type: cell-based, human; settings: 72 h incubation; Mean ± Standard deviation, n = 3
Procedure: as §2

hRPTECs [8] = assay: MTT cytotoxicity assay in hRPTECs; assay type: cell-based, human; settings: 72 h incubation; Mean ± Standard deviation, n = 3
Procedure: as §2

For N.N.[Cl][Pt][Cl] [Cisplatin, cisplatin], the “Upregulation of KIM-1 in vivo” value (KIM-1) is given as >5-fold (Vaidya et al. [2006]), the “M-CSF mRNA level in HK-2 cells” value (M-CSF mRNA [1]; 72 h exposure, P < 0.005) is given as “clearly increased” and the “Upregulation of M-CSF HK-2 R” value (M-CSF mRNA [1]) is given as “+”. The “M-CSF mRNA levels in hRPTECs” value (M-CSF mRNA [2]) was “significant results”, the “Upregulation of M-CSF hRPTECs R” value (M-CSF mRNA [2]) was “+” and the “Upregulation of M-CSF in vivo” value (M-CSF) was “+ (Razzaque and Taguchi [2002]; Menke et al. [2009])”.

In the case of CNC(C)C1CCC(N)C(OC2C(N)CC(N)C(OC3OCC(C)(O)C(NC)C3O)C2O)O1 (centres unmarked) [Gentamicin, gentamicin sulfate], the CC50 at 72 h [3] is reported as > 1000 µM, the CC50 at 72 h [4] is reported as > 1000 µM and the CC50 at 72 h [5] is reported as > 1000 µM. For the same compound, the “toxicity in resazurin assay at highest concentration tested” value (hRPTECs [6]; 72 h, highest concentrations gentamicin 1 mmol/L, CsA 50 μmol/L, cell type not given) was “no toxicity” and the CC50 at 72 h [7] was > 1000 µM.

For Colistin sulfate, the CC50 (HK-2 cells) was > 300 µM, the “Upregulation of M-CSF HK-2 R” value (M-CSF mRNA [1]) was “−” and the “M-CSF mRNA levels in hRPTECs” value (M-CSF mRNA [2]) was “significant results”. The “Upregulation of M-CSF hRPTECs R” value (M-CSF mRNA [2]) was “+”, the CC50 (hRPTECs [6]; 72 h incubation, Mean ± Standard deviation, n = 3) was 177 ± 15 µM and the CC50 (hRPTECs [8]) was > 300 µM.
